Assay results published in patent US20230407321A1, “METHOD TO DELIVER CHEMICALS AND NUCLEIC ACIDS TO PLANT CELLS USING CELLULOSE NANOCRYSTALS AS A CARRIER” (BOARD OF TRUSTEES OF THE UNIVERSITY OF ARKANSAS, priority 2022, published 2023).

Columns and labels:
[1] = test system: N. tabacum callus culture; assay: Tobacco callus growth on MS media with 2,4-D, CNC or CNC-2,4-D conjugate; type: cell-based, Nicotiana tabacum; conditions: reduced amount of 2,4-D (0.4 mg/L or equivalent), 35 days in the dark, total fresh weight
Description: To understand if CNC can deliver a plant hormone that encourages cell division to plants, CNCs conjugated with 2,4-D were added to MS medium. 2,4-D was selected for conjugation based on the extensive use of this synthetic auxin as both a plant growth regulator commonly employed in tissue cultures and as an active ingredient in commercial herbicides. At a modest dose of 1 mg/L, 2,4-D can act as a positive growth regulator and is commonly used in plant cell cultures. […] To estimate if the conjugation of CNC and 2,4-D can improve the uptake of 2,4-D, the total biomass of callus tissues cultivated on media containing 2,4-D was measured. N. tabacum calli were seeded on media containing either a standard dose of 2,4-D (1 mg/L) or a reduced dose of 2,4-D (0.4 mg/L) both conjugated and non-conjugated with CNC. […]
N. tabacum callus culture that was established by Khodakovskaya et al. was used in experiments. […] Callus growth was on the following mediums was assessed: MS medium (no 2,4-D supplement); MS medium supplemented with reduced dose of 2,4-D (0.4 mg/L); MS medium supplemented only with CNC (0.4 mg/L); MS medium supplemented with non-conjugated CNC (0.4 mg/L) and 2,4-D (0.4 mg/L); and MS medium supplemented with CNC-2,4-D conjugate (with 0.4 mg/L 2,4D). Total produced cell biomass was evaluated by measurement of total fresh weight of callus culture generated in the end of cultivation period.

[2] = test system: Arabidopsis thaliana leaves; assay: Confocal microscopy uptake of CNC-DTAF by Arabidopsis leaves; type: cell-based; conditions: free CNC or DTAF in doses comparable with amounts in the CNC-DTAF conjugate (negative controls), 4 hours
Description: To evaluate entry of synthesized CNC-dye conjugates into leaves, 12-day-old Arabidopsis thaliana seedlings were soaked with CNC-DTAF conjugate solution for 4 hours. Additionally, both protoplasts and callus cells of Nicotiana tabacum were incubated with CNC-FITC conjugate for 4 hours, as shown in FIG. 4A. All samples were imaged with confocal microscopy. The fluorescence of CNC-DTAF and CNC-FITC stained samples was digitally measured to determine the difference in signal intensity between conjugate-treated and untreated plant samples.
FIGS. 4B-F show fluorescence intensity images and measured fluorescence intensity (f) of Arabidopsis leaves incubated with water (FIG. 4B), CNC (FIG. 4C), DTAF (FIG. 4D) and CNC-DTAF conjugates (FIG. 4E), for 4 hours.
This observation indicated the ability of CNC to penetrate the cell wall and deliver dye inside the cell.
Leaves of 12-day-old A. thaliana seedlings were soaked in water (control), DTAF solution, CNC solution, or DTAF-CNC solution (1 mg/mL) for 4 hours and then intensively washed with ddH2O to fully remove residual treatments. Both freshly isolated N. tabacum protoplasts and callus cells that were cultivated for 20 days on standard Murashige and Skoog medium (MS medium) were immersed into 1 mg/mL of FITC-CNC conjugate or solution CNC and allowed to incubate for 4 hours. […]

SMILES: O=C(O)COc1ccc(Cl)cc1Cl [2,4-D, 2,4-dichlorophenoxyacetic acid]
- cell growth compared to medium with regular dose of 2,4-D (1 mg/L) [1]: suppressed cell growth

SMILES: Cl.O=C1OC2(c3ccc(O)cc3Oc3cc(O)ccc32)c2ccc(Nc3nc(Cl)nc(Cl)n3)cc21 [DTAF, 5-[(4,6-Dichlorotriazin-2-yl)amino]fluorescein hydrochloride]
- fluorescence observed in leaves [2]: only slight autofluorescence
